Our source for the IC50 values is patent publication US11873298B2, “Compounds and uses thereof” (JANSSEN PHARMACEUTICA NV, priority 2017, dated 2024).

pIC50: −log10 of the molar value. Some results are limits rather than exact numbers.

In the test the target is T1, SCD5 (Homo sapiens, UniProt Q86SK9).
T1 construct: host or cells: S. cerevisiae ole1Δ strain (W303 pdr1Δ pdr3Δ background), plasmid pRS316 with TDH3 promoter and CYC1 terminator
T1 sequence (Q86SK9 1-330): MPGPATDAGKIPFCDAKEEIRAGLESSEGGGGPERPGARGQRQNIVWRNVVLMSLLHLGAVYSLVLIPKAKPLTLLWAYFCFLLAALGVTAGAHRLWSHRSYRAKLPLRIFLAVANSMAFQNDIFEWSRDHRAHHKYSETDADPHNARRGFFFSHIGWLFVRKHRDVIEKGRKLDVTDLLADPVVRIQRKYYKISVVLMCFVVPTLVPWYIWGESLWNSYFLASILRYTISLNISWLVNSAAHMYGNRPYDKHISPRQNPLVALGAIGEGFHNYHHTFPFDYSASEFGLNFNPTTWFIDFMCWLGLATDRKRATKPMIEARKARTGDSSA
Briefly: Growth inhibition of humanized yeast strain expressing SCD5 as sole desaturase. The class given is cell-based. As to the method: Strain oleΔ (yeast ole1 deletion mutant) was constructed by deleting OLE1 with NAT-MX6 in BY4741, amplifying the deletion cassette from the genomic DNA of the resulting strain with primers flanking the ORF by 1000 bp upstream and downstream, transforming the resulting deletion cassette into W303 pdr1Δ pdr3Δ, and plating transformants on YPD media containing G418 (200 μg/mL) and nourseothricin ([…]) with 0.01% TWEEN®-20 and 0.5 mM oleic and palmitoleic acids.
The coding sequence of yeast OLE1 was also cloned into this plasmid). These clones were then transformed into the ole1Δ strain and plated on CSM-Ura media (CSM lacking uracil) with 2% glucose (w/v) and independent colonies were isolated and amplified.
All compound profiling experiments were performed using the same basic protocol. Different genetic backgrounds (e.g., gene deletions) or conditions (e.g., addition of oleic and palmitoleic acid) were replaced as indicated below.
Yeast were cultured using standard techniques in complete synthetic media (CSM) and yeast nitrogen base supplemented with 2% (w/v) carbon source (glucose, raffinose, or galactose) to regulate the expression of the toxic disease protein. An initial starter culture was inoculated in 3 mL CSM-Glucose media and incubated overnight in a 30° C. shaker incubator (225 rpm). Saturated morning cultures were then diluted 1:20 in fresh CSM-Raffinose media and grown for 6 h to an OD600 (optical density) of ˜0.4-0.8 at 30° C. with shaking.
Compound administration was performed in two separate steps. First, 15 μL of CSM-Galactose (induces expression of toxic protein) was dispensed into clear 384 well assay plates using a MULTIDROP™ Combi reagent dispenser. […] The cultures described above were then diluted to a 2× concentration (0.03 and 0.08 for alpha-synuclein and ApoE, final ODsoo of 0.015 and 0.04) in CSM-Galactose. For wild-type and Ole1/SCD1/SCD5 plasmid-containing strains, the 2× cell density was 0.02. […] For 96-well assays (FIGS. 1A and 1B), compound dilutions in DMSO were generated in 96 well plates and 1 μL was manually pipetted into 96 well clear bottom assay plates.
For experiments using a plasmid-borne copy of Ole1, SCD1, or SCD5 (FIGS. 3B, 6, and 7), media lacking uracil (SX-Ura, where X is glucose, raffinose, or galactose), was used for all steps of the compound profiling protocol to ensure its maintenance throughout the assay.
After yeast delivery, assay plates were incubated under humidified conditions at 30° C. for 24 to 40 h. ApoE4 rescue experiments were stopped at 24 h, aSyn experiments at 40 h, Ole1 at 24 h, and SCD1/SCD5 at 40 h. The growth of yeast was monitored by reading the ODsoo of each well using a microplate reader (Perkin Elmer EnVision™).

[1] abbreviates: humanized yeast strain expressing SCD5.
Setting [2] is: yeast strain expressing human SCD5 as sole desaturase, Table 8.

Molecule `N#Cc1cccc(N2C[C@H](C(=O)N3CCC(c4nc(-c5ccc6cnn(C7COC7)c6c5)no4)CC3)CC2=O)c1` [Compound 600] gave a pIC50 under setting [1] of under 4.35.
In turn, `CCC(=O)N1CCC(c2noc(-c3cc(N4CCC(F)(F)C4)c(F)cn3)n2)CC1` [Compound 1311] showed a pIC50 under setting [2] of 5.11.
Still for that read-out and setting: in the case of `O=C(C1CCC1)N1CCC(c2noc(-c3cc(C4CCOC4)c(F)cn3)n2)CC1` (stereo not shown) [Compound 1297] it was 6.80.
Regarding `CC(C)n1ncc2ccc(N3CC4(CCNCC4)C3)cc21` [Compound 538], under setting [1], the pIC50 was under 4.35.
Still for that read-out and setting: in the case of `N#Cc1cccc(N2C[C@@H](C(=O)N3CCC(c4nc(-c5ccc6cnn(C7COC7)c6c5)no4)CC3)CC2=O)c1` [Compound 599] it was under 4.35.
As to `CC(C)C(=O)N1CCC(c2noc(-c3cc(F)c(F)c(N4CCOCC4)c3)n2)CC1` [Compound 1304], the pIC50 under setting [2] was 4.93.
For `CC(C)C(=O)N1CCC(c2noc(-c3ccc(F)c(N4CCOC5(CC5)C4)c3)n2)CC1` [Compound 1302], under setting [2], the pIC50 is 6.05.
The same measure, in the same setting: in the case of `CC(C)(C)OC(=O)N1CCN(c2cc(-c3ccc4cnn(C5COC5)c4n3)on2)CC1` [Compound 1228] it was 5.71.
Still for that read-out and setting: the figure for `CC(C)(C)OC(=O)N1CCC(c2noc(-c3cc(N4CCOCC4)c(F)cn3)n2)CC1` [Compound 1273] is 7.70.
In the case of `O=C(c1ccccc1)N1CCC(c2nc(-c3ccc4cnn(C5COC5)c4c3)no2)CC1` [Compound 564], the pIC50 under setting [1] is 5.37.
In turn, `O=C(C1CCC1)N1CCC(c2noc(-c3ccnc(O[C@@H]4CCOC4)c3)n2)CC1` [Compound 1269] showed a pIC50 under setting [2] of 6.23.
In the case of `CC(C)n1ncc2ccc(-c3noc(N4C[C@@H]5CNC[C@H]5C4)n3)cc21` [Compound 530], the pIC50 under setting [1] was under 4.35.
Under setting [1], `CC(C)n1ncc2ccc(-c3noc(C4CCN(C(=O)c5cscn5)CC4)n3)cc21` [Compound 573] showed a pIC50 of 5.25.
Under setting [2], `O=C(OC1CCC1)N1CCC(c2noc(-c3ccn(C4COC4)c(=O)c3)n2)CC1` [Compound 1292] gave a pIC50 of 4.82.
As for `COCC(=O)N1CCN(c2nc(-c3ccc4cnn(C(C)C)c4c3)no2)CC1` [Compound 595], the pIC50 under setting [1] is under 4.35.
On to `CC(C)(C)OC(=O)N1CCC(c2noc(-c3cc(N4CCOCC4)ccn3)n2)CC1` [Compound 1288], for which the pIC50 under setting [2] is 5.26.
Still for that read-out and setting: in the case of `O=C(C1CCC1)N1CCC(c2noc(-c3ccnc([C@@H]4CCOC4)c3)n2)CC1` [Compound 1242] it was 6.42.
Same read-out and setting: the figure for `CC1(OC(=O)N2CCC(c3noc(-c4cncc(C5CCOC5)c4)n3)CC2)CC1` (stereo not shown) [Compound 1206] is 6.49; for `CCS(=O)(=O)N1CCC(c2noc(-c3ccc4cnn(C5COC5)c4c3)n2)CC1` [Compound 1216] it is 6.48.
As for `CC1(OC(=O)N2CCC(c3noc(N4CCc5cnn(C6COC6)c5C4)n3)CC2)CC1` [Compound 1224], the pIC50 under setting [2] was 7.22.
On the same count and under the same terms, the figure for `O=C(C1CC1)N1CCC(c2noc(-c3ccnc(O[C@@H]4CCOC4)c3)n2)CC1` [Compound 1255] is 5.73; for `CC(C)(C)OC(=O)N1CCC(c2noc(-c3ccc(OC4COC4)nc3)n2)CC1` [Compound 1249] it is 5.31.
In the case of `CC(C)n1ncc2ccc(-c3nc(N4CCN(C(=O)c5ccccc5)CC4)no3)cc21` [Compound 582], the pIC50 under setting [1] was 6.75.
Still for that read-out and setting: in the case of `CC(C)n1ncc2ccc(-c3nc(N4CCN(C(=O)OC(C)(C)C)CC4)no3)cc21` [Compound 548] it was 8.00; in that of `Cc1noc2cc(-c3noc(C4CCN(C(=O)CC5(C)CC5)CC4)n3)ccc12` [Compound 591], under 4.35; in that of `Cc1nn(C)c2cc(-c3noc(C4CCN(C(=O)CC5CN(C(=O)OC(C)(C)C)C5)CC4)n3)ccc12` [Compound 502], 4.41.
The same measure, in the same setting: in the case of `CC(C)n1ncc2ccc(-c3noc(N4C[C@H]5CN(C(=O)CC(C)(C)C)C[C@H]5C4)n3)cc21` [Compound 497] it was 4.95; in that of `COC(=O)N[C@H]1CC[C@@H](c2nc(-c3ccc4c(C)nn(C)c4c3)no2)CC1` [Compound 550], under 4.35.

One may read the pIC50 as the IC50 on a negative log10 scale, so that one unit is a factor of ten. High values mean a small IC50, low ones a large IC50.
